The values that follow are results of earlier work, collected in patent US10328004B2, “Sunscreen cosmetic” (SHISEIDO COMPANY, LTD., priority 2015, dated 2019).

For the data set the following is noted: UVB wavelength range.

On to `CCCCC(CC)COC(=O)c1ccc(Nc2nc(Nc3ccc(C(=O)OCC(CC)CCCC)cc3)nc(Nc3ccc(C(=O)OCC(CC)CCCC)cc3)n2)cc1` (stereo not shown) [Ethylhexyl triazone], for which the maximum absorption wavelength was 312 nm.
